Activity calls are given as the source filed them. The calls are words filed in the database; no cut-off is given here.
Experiments:
Rattus norvegicus [1] = assay: Toxicity in normal Sprague-Dawley rat assessed as effect on retinal endothelial cell count at 50 mg/kg/day administered with drinking water after 6 months by hematoxylin and eosin staining; format: organism-based; conditions: in vivo
Rattus norvegicus [2] = assay: Antiretinopathic activity in Sprague-Dawley rat streptozotocin-induced diabetic model assessed as swollen of retinal pericyte mitochondria and endothelial cells at 50 mg/kg/day administered with drinking water after 6 months by transmission electron microscopic analysis; format: functional, organism-based; conditions: Endothelial cell
Rattus norvegicus [3] = assay: Toxicity in normal Sprague-Dawley rat assessed as effect on ratio of retinal endothelial cell count to pericyte cell count at 50 mg/kg/day administered with drinking water after 6 months by hematoxylin and eosin staining (reference value: 3.58 +/- 0.61); format: organism-based; conditions: in vivo
Rattus norvegicus [4] = assay: Effect on fasting blood glucose level in normal Sprague-Dawley rat 50 mg/kg/day administered with drinking water after 6 months (reference value: 5.51 +/- 1.06 mmol/L); format: functional
Rattus norvegicus [5] = assay: Antiretinopathic activity in Sprague-Dawley rat streptozotocin-induced diabetic model assessed as increase of retinal electron density of basement membrane at 50 mg/kg/day administered with drinking water after 6 months by transmission electron microscopic analysis; format: functional, organism-based
Rattus norvegicus [6] = assay: Toxicity in normal Sprague-Dawley rat assessed as reduction of body weight at 50 mg/kg/day administered with drinking water after 6 months (reference value: 547.50 +/- 36.23 g); format: organism-based; conditions: in vivo
Rattus norvegicus [7] = assay: Toxicity in normal Sprague-Dawley rat assessed as retinal advanced glycated end products positive area at 50 mg/kg/day administered with drinking water after 6 months by immunohistochemistry analysis (reference value: 0.75 +/- 0.94%); format: organism-based; conditions: in vivo
Rattus norvegicus [8] = assay: Antiretinopathic activity in Sprague-Dawley rat streptozotocin-induced diabetic model assessed as effect on retinal pericyte cell count at 50 mg/kg/day administered with drinking water after 6 months by hematoxylin and eosin staining; format: functional, organism-based
Rattus norvegicus [9] = assay: Antiretinopathic activity in Sprague-Dawley rat streptozotocin-induced diabetic model assessed as effect on retinal endothelial cell count at 50 mg/kg/day administered with drinking water after 6 months by hematoxylin and eosin staining; format: functional, organism-based
Rattus norvegicus [10] = assay: Antiretinopathic activity in Sprague-Dawley rat streptozotocin-induced diabetic model assessed as reduction of retinal advanced glycated end products positive area at 50 mg/kg/day administered with drinking water after 6 months by immunohistochemistry analysis (reference value: 78.70 +/- 7.11%); format: functional; parameters: scale not given: the % may be the effect or the level left
Rattus norvegicus [11] = assay: Antidiabetic activity in Sprague-Dawley rat streptozotocin-induced diabetic model assessed as reduction of fasting blood glucose level at 50 mg/kg/day administered with drinking water after 3 months (reference value: 20.99 +/- 4.13 mmol/L); format: functional
Rattus norvegicus [12] = assay: Antiretinopathic activity in Sprague-Dawley rat streptozotocin-induced diabetic model assessed as ratio of retinal endothelial cell count to pericyte cell count at 50 mg/kg/day administered with drinking water after 3 months by hematoxylin and eosin staining (reference value: 3.25 +/- 0.27); format: functional
Rattus norvegicus [13] = assay: Toxicity in normal Sprague-Dawley rat assessed as effect on retinal endothelial cell count at 50 mg/kg/day administered with drinking water after 3 months by hematoxylin and eosin staining; format: organism-based; conditions: in vivo
Rattus norvegicus [14] = assay: Antiretinopathic activity in Sprague-Dawley rat streptozotocin-induced diabetic model assessed as ratio of retinal endothelial cell count to pericyte cell count at 50 mg/kg/day administered with drinking water after 6 months by hematoxylin and eosin staining (reference value: 10.91 +/- 3.34); format: functional
Rattus norvegicus [15] = assay: Toxicity in normal Sprague-Dawley rat assessed as effect on retinal pericyte cell count at 50 mg/kg/day administered with drinking water after 6 months by hematoxylin and eosin staining; format: organism-based; conditions: in vivo
Rattus norvegicus [16] = assay: Antiretinopathic activity in Sprague-Dawley rat streptozotocin-induced diabetic model assessed as effect on retinal pericyte cell count at 50 mg/kg/day administered with drinking water after 3 months by hematoxylin and eosin staining; format: functional, organism-based
Rattus norvegicus [17] = assay: Antidiabetic activity in Sprague-Dawley rat streptozotocin-induced diabetic model assessed as reduction of body weight at 50 mg/kg/day administered with drinking water after 3 months (reference value: 206.00 +/- 52.59 g); format: functional
Rattus norvegicus [18] = assay: Toxicity in normal Sprague-Dawley rat assessed as effect on retinal pericyte cell count at 50 mg/kg/day administered with drinking water after 3 months by hematoxylin and eosin staining; format: organism-based; conditions: in vivo
Rattus norvegicus [19] = assay: Antiretinopathic activity in Sprague-Dawley rat streptozotocin-induced diabetic model assessed as effect on retinal endothelial cell count at 50 mg/kg/day administered with drinking water after 3 months by hematoxylin and eosin staining; format: functional, organism-based
Rattus norvegicus [20] = assay: Antidiabetic activity in Sprague-Dawley rat streptozotocin-induced diabetic model assessed as reduction of fasting blood glucose level at 50 mg/kg/day administered with drinking water after 6 months (reference value: 20.20 +/- 5.51 mmol/L); format: functional
Rattus norvegicus [21] = assay: Toxicity in normal Sprague-Dawley rat assessed as retinal advanced glycated end products positive area at 50 mg/kg/day administered with drinking water after 3 months by immunohistochemistry analysis (reference value: 0.64 +/- 0.87%); format: organism-based; conditions: in vivo
Rattus norvegicus [22] = assay: Antiretinopathic activity in Sprague-Dawley rat streptozotocin-induced diabetic model assessed as reduction of retinal advanced glycated end products positive area at 50 mg/kg/day administered with drinking water after 3 months by immunohistochemistry analysis (reference value: 69.20 +/- 10.75%); format: functional; parameters: scale not given: the % may be the effect or the level left
Rattus norvegicus [23] = assay: Toxicity in normal Sprague-Dawley rat assessed as reduction of body weight at 50 mg/kg/day administered with drinking water after 3 months (reference value: 561.00 +/- 32.04 g); format: organism-based; conditions: in vivo
Rattus norvegicus [24] = assay: Effect on fasting blood glucose level in normal Sprague-Dawley rat 50 mg/kg/day administered with drinking water after 3 months (reference value: 5.68 +/- 0.96 mmol/L); format: functional
Rattus norvegicus [25] = assay: Toxicity in normal Sprague-Dawley rat assessed as effect on ratio of retinal endothelial cell count to pericyte cell count at 50 mg/kg/day administered with drinking water after 3 months by hematoxylin and eosin staining (reference value: 2.89 +/- 0.76); format: organism-based; conditions: in vivo
Rattus norvegicus [26] = assay: Antidiabetic activity in Sprague-Dawley rat streptozotocin-induced diabetic model assessed as reduction of body weight at 50 mg/kg/day administered with drinking water after 6 months (reference value: 254.50 +/- 123.03 g); format: functional

In the case of `N=C(N)NN` [PIMAGEDINE], the Activity (Rattus norvegicus [1]) is reported as “Non-toxic”, the Activity (Rattus norvegicus [2]) is reported as “Active” and the Ratio (Rattus norvegicus [3]) is reported as 3.46. For the same compound, the Activity (Rattus norvegicus [4]) was 5.07 mmol/L, the Activity (Rattus norvegicus [5]) was “inactive” and the Activity (Rattus norvegicus [6]) was 553 g. For the same compound, the Activity (Rattus norvegicus [7]) was 3.27%, the Activity (Rattus norvegicus [8]) was “inactive” and the Activity (Rattus norvegicus [9]) was “inactive”. It also gave an Activity (Rattus norvegicus [10]) of 9.16%, an Activity (Rattus norvegicus [11]) of 21.89 mmol/L and a Ratio (Rattus norvegicus [12]) of 3.06. The Activity (Rattus norvegicus [13]) was “Non-toxic”, the Ratio (Rattus norvegicus [14]) was 3.71 and the Activity (Rattus norvegicus [15]) was “Non-toxic”. For the same compound, the Activity (Rattus norvegicus [16]) was “inactive”, the Activity (Rattus norvegicus [17]) was 219.5 g and the Activity (Rattus norvegicus [18]) was “Non-toxic”. For the same compound, the Activity (Rattus norvegicus [19]) was “inactive”, the Activity (Rattus norvegicus [20]) was 21.74 mmol/L and the Activity (Rattus norvegicus [21]) was 1.33%. The Activity (Rattus norvegicus [22]) was 12.71%, the Activity (Rattus norvegicus [23]) was 536.5 g and the Activity (Rattus norvegicus [24]) was 5.23 mmol/L. It also gave a Ratio (Rattus norvegicus [25]) of 2.95 and an Activity (Rattus norvegicus [26]) of 284.5 g.

— ChEMBL document CHEMBL2040726, “The effects of aminoguanidine on retinopathy in STZ-induced diabetic rats” (Bioorg Med Chem Lett, 2012)
